Results from patent publication US20090163461A1, “Ligand for Vesicular Acetylcholine Transporter” (priority 2005, published 2009).

Legend:
[1] = Tissue distribution of radioactivity after intravenous injection in rats; assay type: in vivo; details: rat
Experimental: From the tail vein of each rat, an injection containing 20 MBq of (−)-[^11C]-o-MeVES (0.2 ml) was administered. At 5 minutes, 15 minutes, 30 minutes, and 60 minutes after administration, the rats were killed by cervical dislocation, and blood was drawn from the heart using a syringe, after which tissues such as the heart, lungs, liver, and brain were extirpated, and the radioactivity in each tissue was measured using a gamma counter. Each tissue was also weighed.

VAChT in the brain = molecular target: T1, VAChT in the brain (Rattus norvegicus, UniProt Q62666); assay: Rat brain ex vivo autoradiography; assay type: in vivo; details: 110-120 MBq i.v., 15 or 30 minutes after administration
T1 construct: from tissue; host or cells: brain of living rats, tissue counted or sectioned after killing
T1 sequence (Q62666 1-530): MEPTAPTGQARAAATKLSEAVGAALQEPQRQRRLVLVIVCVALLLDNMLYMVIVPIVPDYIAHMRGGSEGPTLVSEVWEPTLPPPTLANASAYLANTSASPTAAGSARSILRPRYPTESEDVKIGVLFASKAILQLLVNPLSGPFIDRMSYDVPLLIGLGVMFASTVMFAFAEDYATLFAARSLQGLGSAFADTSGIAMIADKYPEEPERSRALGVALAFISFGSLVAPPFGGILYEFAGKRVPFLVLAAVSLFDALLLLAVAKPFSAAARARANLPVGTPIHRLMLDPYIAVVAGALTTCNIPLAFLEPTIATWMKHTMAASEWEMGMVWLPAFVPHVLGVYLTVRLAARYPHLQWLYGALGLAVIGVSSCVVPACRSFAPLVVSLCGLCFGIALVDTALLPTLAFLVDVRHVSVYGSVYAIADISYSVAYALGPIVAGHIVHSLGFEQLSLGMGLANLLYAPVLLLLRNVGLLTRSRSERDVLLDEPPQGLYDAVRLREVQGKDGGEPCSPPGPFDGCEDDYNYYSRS
Experimental: To the caudal vein of each rat, 110-120 MBq of (−)-[^11C]-o-MeVES was administered, and the rats were killed by cervical dislocation and had the brain extirpated 15 minutes after administration for the first rat, or 30 minutes after administration for the second rat. The extirpated brain was immediately frozen with dry ice, and a brain section 20 μm in thickness was prepared using a cryomicrotome. The brain section was mounted on a glass plate, this section was dried on a hot plate (60° C.), and images of radioactivity distribution were obtained by radioluminography.

VAChT = assay: PET brain imaging of learning disability model (neurolysis) monkeys and healthy monkeys; assay type: in vivo, monkey; details: 185-740 MBq i.v., images 15 minutes to 60 minutes after administration
Experimental: 185-740 MBq of (−)-[^11C]-o-MeVES was administered to a vein of each of learning disability model monkeys (neurolysis monkeys) created by selectively destroying the p75NTR positive cells (ACh neurons) in the right hemisphere of the brain with 192-Saporin (manufactured by Advanced Targeting Systems) and healthy monkeys, and image data were collected using PET for animals (PET; manufactured by Hamamatsu Photonics K.K., SHR-7700) at 10 seconds to 91 minutes after administration. The image data obtained at 15 minutes to 60 minutes after administration were picturized; the photographs thus obtained are shown in FIG. 4.

## [11CH3]c1ccccc1C1CCN(C2CCCC[C@H]2O)CC1 (single isomer, unassigned; (-)) [(−)-[^11C]-o-MeVES, (−)-[^11C]-2-(4-(2-methylphenyl)piperidino)cyclohexanol]
[1]; i.v. 20 MBq, blood, 5 min, % of administered radioactivity per gram of tissue, mean ± S.D. n = 4-6
  Radioactivity level blood 5 min: 0.45 ± 0.04%
[1]; i.v. 20 MBq, blood, 15 min, % of administered radioactivity per gram of tissue, mean ± S.D. n = 4-6
  Radioactivity level blood 15 min: 0.27 ± 0.03%
[1]; i.v. 20 MBq, blood, 30 min, % of administered radioactivity per gram of tissue, mean ± S.D. n = 4-6
  Radioactivity level blood 30 min: 0.24 ± 0.02%
[1]; i.v. 20 MBq, blood, 60 min, % of administered radioactivity per gram of tissue, mean ± S.D. n = 4-6
  Radioactivity level blood 60 min: 0.18 ± 0.02%
[1]; i.v. 20 MBq, brain, 5 min, % of administered radioactivity per gram of tissue, mean ± S.D. n = 4-6
  Radioactivity level brain 5 min: 5.47 ± 0.44%
[1]; i.v. 20 MBq, brain, 15 min, % of administered radioactivity per gram of tissue, mean ± S.D. n = 4-6
  Radioactivity level brain 15 min: 4.54 ± 0.54%
[1]; i.v. 20 MBq, brain, 30 min, % of administered radioactivity per gram of tissue, mean ± S.D. n = 4-6
  Radioactivity level brain 30 min: 4.71 ± 0.45%
[1]; i.v. 20 MBq, brain, 60 min, % of administered radioactivity per gram of tissue, mean ± S.D. n = 4-6
  Radioactivity level brain 60 min: 3.86 ± 0.28%
[1]; i.v. 20 MBq, heart, 5 min, % of administered radioactivity per gram of tissue, mean ± S.D. n = 4-6
  Radioactivity level heart 5 min: 3.37 ± 0.30%
[1]; i.v. 20 MBq, heart, 15 min, % of administered radioactivity per gram of tissue, mean ± S.D. n = 4-6
  Radioactivity level heart 15 min: 1.82 ± 0.19%
[1]; i.v. 20 MBq, heart, 30 min, % of administered radioactivity per gram of tissue, mean ± S.D. n = 4-6
  Radioactivity level heart 30 min: 1.52 ± 0.11%
[1]; i.v. 20 MBq, heart, 60 min, % of administered radioactivity per gram of tissue, mean ± S.D. n = 4-6
  Radioactivity level heart 60 min: 0.96 ± 0.02%
[1]; i.v. 20 MBq, kidney, 5 min, % of administered radioactivity per gram of tissue, mean ± S.D. n = 4-6
  Radioactivity level kidney 5 min: 11.10 ± 4.31%
[1]; i.v. 20 MBq, kidney, 15 min, % of administered radioactivity per gram of tissue, mean ± S.D. n = 4-6
  Radioactivity level kidney 15 min: 7.52 ± 0.40%
[1]; i.v. 20 MBq, kidney, 30 min, % of administered radioactivity per gram of tissue, mean ± S.D. n = 4-6
  Radioactivity level kidney 30 min: 6.02 ± 0.09%
[1]; i.v. 20 MBq, kidney, 60 min, % of administered radioactivity per gram of tissue, mean ± S.D. n = 4-6
  Radioactivity level kidney 60 min: 4.15 ± 0.50%
[1]; i.v. 20 MBq, liver, 5 min, % of administered radioactivity per gram of tissue, mean ± S.D. n = 4-6
  Radioactivity level liver 5 min: 2.58 ± 0.23%
[1]; i.v. 20 MBq, liver, 15 min, % of administered radioactivity per gram of tissue, mean ± S.D. n = 4-6
  Radioactivity level liver 15 min: 2.93 ± 0.38%
[1]; i.v. 20 MBq, liver, 30 min, % of administered radioactivity per gram of tissue, mean ± S.D. n = 4-6
  Radioactivity level liver 30 min: 3.22 ± 0.76%
[1]; i.v. 20 MBq, liver, 60 min, % of administered radioactivity per gram of tissue, mean ± S.D. n = 4-6
  Radioactivity level liver 60 min: 3.28 ± 0.32%
[1]; i.v. 20 MBq, lung, 5 min, % of administered radioactivity per gram of tissue, mean ± S.D. n = 4-6
  Radioactivity level lung 5 min: 16.55 ± 2.56%
[1]; i.v. 20 MBq, lung, 15 min, % of administered radioactivity per gram of tissue, mean ± S.D. n = 4-6
  Radioactivity level lung 15 min: 10.38 ± 2.48%
[1]; i.v. 20 MBq, lung, 30 min, % of administered radioactivity per gram of tissue, mean ± S.D. n = 4-6
  Radioactivity level lung 30 min: 8.74 ± 0.34%
[1]; i.v. 20 MBq, lung, 60 min, % of administered radioactivity per gram of tissue, mean ± S.D. n = 4-6
  Radioactivity level lung 60 min: 4.81 ± 0.76%
[1]; i.v. 20 MBq, muscle, 5 min, % of administered radioactivity per gram of tissue, mean ± S.D. n = 4-6
  Radioactivity level muscle 5 min: 1.57 ± 0.27%
[1]; i.v. 20 MBq, muscle, 15 min, % of administered radioactivity per gram of tissue, mean ± S.D. n = 4-6
  Radioactivity level muscle 15 min: 1.42 ± 0.44%
[1]; i.v. 20 MBq, muscle, 30 min, % of administered radioactivity per gram of tissue, mean ± S.D. n = 4-6
  Radioactivity level muscle 30 min: 1.18 ± 0.24%
[1]; i.v. 20 MBq, muscle, 60 min, % of administered radioactivity per gram of tissue, mean ± S.D. n = 4-6
  Radioactivity level muscle 60 min: 1.00 ± 0.16%
[1]; i.v. 20 MBq, pancreas, 5 min, % of administered radioactivity per gram of tissue, mean ± S.D. n = 4-6
  Radioactivity level pancreas 5 min: 8.44 ± 1.93%
[1]; i.v. 20 MBq, pancreas, 15 min, % of administered radioactivity per gram of tissue, mean ± S.D. n = 4-6
  Radioactivity level pancreas 15 min: 12.13 ± 2.23%
[1]; i.v. 20 MBq, pancreas, 30 min, % of administered radioactivity per gram of tissue, mean ± S.D. n = 4-6
  Radioactivity level pancreas 30 min: 11.53 ± 2.67%
[1]; i.v. 20 MBq, pancreas, 60 min, % of administered radioactivity per gram of tissue, mean ± S.D. n = 4-6
  Radioactivity level pancreas 60 min: 10.67 ± 1.22%
[1]; i.v. 20 MBq, small intestine, 5 min, % of administered radioactivity per gram of tissue, mean ± S.D. n = 4-6
  Radioactivity level small intestine 5 min: 6.19 ± 0.58%
[1]; i.v. 20 MBq, small intestine, 15 min, % of administered radioactivity per gram of tissue, mean ± S.D. n = 4-6
  Radioactivity level small intestine 15 min: 8.76 ± 1.66%
[1]; i.v. 20 MBq, small intestine, 30 min, % of administered radioactivity per gram of tissue, mean ± S.D. n = 4-6
  Radioactivity level small intestine 30 min: 8.48 ± 1.85%
[1]; i.v. 20 MBq, small intestine, 60 min, % of administered radioactivity per gram of tissue, mean ± S.D. n = 4-6
  Radioactivity level small intestine 60 min: 8.90 ± 0.50%
[1]; i.v. 20 MBq, spleen, 5 min, % of administered radioactivity per gram of tissue, mean ± S.D. n = 4-6
  Radioactivity level spleen 5 min: 4.97 ± 1.06%
[1]; i.v. 20 MBq, spleen, 15 min, % of administered radioactivity per gram of tissue, mean ± S.D. n = 4-6
  Radioactivity level spleen 15 min: 5.90 ± 0.51%
[1]; i.v. 20 MBq, spleen, 30 min, % of administered radioactivity per gram of tissue, mean ± S.D. n = 4-6
  Radioactivity level spleen 30 min: 5.56 ± 0.52%
[1]; i.v. 20 MBq, spleen, 60 min, % of administered radioactivity per gram of tissue, mean ± S.D. n = 4-6
  Radioactivity level spleen 60 min: 4.24 ± 0.35%
[1]; i.v., 5-60 min
  brain accumulation: retainable
  organ accumulation / exposure: no organs showing particularly high accumulation
VAChT in the brain
  local distribution in the brain (autoradiography): agreed well with the in vitro local distribution of (−)-[^3H]-vesamicol
VAChT; healthy monkeys
  RI accumulation in healthy monkeys (PET): no change in the accumulation
VAChT; neurolysis monkeys
  RI accumulation in the cerebral cortex on the neurolysis side compared to the healthy side (PET): significant reduction in RI accumulation
